Data from patent US11098040B2, “Compounds and methods of use” (Ferro Therapeutics, Inc., priority 2018, dated 2021).
pIC50: −log10 of the molar value.

Assays:
SJSA-1 = test: Cell proliferation (Alamar Blue) assay, SJSA-1 osteosarcoma, with/without ferrostatin; assay type: cell-based, human; conditions: Homo sapiens, SJSA-1, Cell Line SJSA-1; read-out: IC50
Experimental: (§1) Cell viability assay was performed to assess the potency of the compounds in human cancer cell lines 786-O (renal cell carcinoma) and SJSA-1 (osteosarcoma). Additional cell lines, such as those described above in Example 4 as well as various others, e.g., pancreatic cancer cell lines (Panc 02.13, BxPC-3, Panc 12, Panc 02.03, Panc 6.03, PSN-1, HPAC, and Capan-1) and prostate cancer cell lines (PC-3, DU145, 22Rv1, NCI-H660, BPH1, LNCaP, BM-1604, and MDA PCa 2b), were tested for select compounds as shown in Table 25.
(§2) Cells (SJSA-1, 786-O and A431) were seeded (5000 cells/100 μL/well) in 96-well tissue culture plate and incubated at 37° C./5% CO2 for 16-24 hours. The cells were then treated with compounds (25 μL of 5×). The compound concentrations were 10-0.0005 μM prepared in 3-fold serial dilutions with final DMSO concentration of 1%. The plates were then incubated for 24 h at 37° C./5% CO2 in a moist environment. Then Alamar Blue™ reagent (final concentration 1×-12.5 μL) was added to each well and incubated for 1.5 hours at 37° C./5% CO2. The plates were read on fluorescence reader at 540 nm excitation and 590 nm emission wavelengths. The IC50 values were subsequently determined using a sigmoidal dose-response curve (variable slope) in GraphPad Prism® 5 software.
(§3) Studies have shown that lipophilic antioxidants, such as ferrostatin, can rescue cells from GPX4 inhibition-induced ferroptosis. For instance, mesenchymal state GPX4-knockout cells can survive in the presence of ferrostatin, however, when the supply of ferrostatin is terminated, these cells undergo ferroptosis (see, e.g., Viswanathan et al., Nature 547:453-7, 2017). […] Accordingly, the ability of a molecule to induce ferroptotic cancer cell death, and that such ability is admonished by the addition of ferrostatin, is clear indication that the molecule is an GPX4 inhibitor.

A549 = test: Cell viability assay, A549 cells; assay type: cell-based; conditions: Homo sapiens, A549, Cell Line A549; read-out: IC50
Experimental: Example 5: Inducer Compound Effect on Growth of A549 and KP4 Cells
Cell viability assay was performed to assess the potency of the compounds in cancer cell line KP4 (pancreatic ductal adenocarcinoma). Cells at a density of 1,000-10,000 cells/well were seeded in 96-well plates and incubated at 37° C. overnight. A series of 9 different concentrations of compound stocks (500×) were created by 3-fold serial dilution in DMSO. These compounds were further diluted in culture media and then added to cells so that the final DMSO concentration was equal to 0.25% or less. After 96 hours of incubation, 50 μL of CellTiter Glo reagent (Promega) was added to each well and luminescence was measured after 10 minutes using EnVision (PerkinElmer). All compounds were tested initially from 30 μM as the top concentration in duplicates (range of 4.6 nM-30 μM). […] Luminescence from cells treated with DMSO alone was set as Max and % of inhibition was calculated as follows: Inhibition %=(Max-Sample value)/Max*100. Data was analyzed using XL-fit software (ID Business Solutions Ltd.). IC50, relative IC50, or % of top inhibition was calculated. […]

786-O = test: Cell proliferation (Alamar Blue) assay, 786-O renal cell carcinoma, with/without ferrostatin; assay type: cell-based; conditions: Homo sapiens, 786-0, Cell Line 786-O; read-out: IC50
Experimental: as §1, §2, §3

Work on `C#CC(=O)N1[C@@H](c2ccc(F)cc2)c2[nH]c3ccccc3c2C[C@@H]1C#N` [Compound 190] yielded a pIC50 (SJSA-1) of 6.04, a pIC50 (A549) of 5.52 and a pIC50 (786-O) of 5.92.
In the case of `C#CC(=O)N1[C@@H](c2ccc(C3CCOCC3)cc2)c2[nH]c3ccccc3c2C[C@@H]1C` [Compound 192], the pIC50 (SJSA-1) was 6.92, the pIC50 (A549) was 4.85 and the pIC50 (786-O) was 6.71.
Work on `C#CC(=O)N1[C@@H](c2ccc(OC)cc2)c2[nH]c3ccccc3c2C[C@@H]1C` [Compound 193] yielded a pIC50 (SJSA-1) of 6.76, a pIC50 (A549) of 4.88 and a pIC50 (786-O) of 6.65.
In the case of `C#CC(=O)N1[C@@H](c2ccc(C#N)cc2)c2[nH]c3ccccc3c2C[C@@H]1C` [Compound 194], the pIC50 (SJSA-1) was 6.58, the pIC50 (A549) was 4.84 and the pIC50 (786-O) was 6.54.
For `C#CC(=O)N1[C@@H](c2ccc(Br)cc2)c2[nH]c3ccccc3c2C[C@@H]1C` [Compound 195], the pIC50 (SJSA-1) was 6.59, the pIC50 (A549) was 4.78 and the pIC50 (786-O) was 6.40.
Compound `C#CC(=O)N1[C@@H](c2ccc(Cl)cc2)c2[nH]c3ccccc3c2C[C@@H]1C` [Compound 196] has a pIC50 (SJSA-1) of 6.88, a pIC50 (A549) of 4.69 and a pIC50 (786-O) of 6.57.
In the case of `C#CC(=O)N1[C@@H](c2c(F)cc(F)cc2F)c2[nH]c3ccccc3c2C[C@@H]1C` [Compound 197], the pIC50 (SJSA-1) was 7.99, the pIC50 (A549) was 5.25 and the pIC50 (786-O) was 6.88.
Compound `C#CC(=O)N1[C@@H](c2cc(F)cc(F)c2)c2[nH]c3ccccc3c2C[C@@H]1C` [Compound 198] has a pIC50 (SJSA-1) of 7.05, a pIC50 (A549) of 4.95 and a pIC50 (786-O) of 6.74.
With `C#CC(=O)N1[C@@H](c2ccc(F)c(F)c2)c2[nH]c3ccccc3c2C[C@@H]1C` [Compound 199] the pIC50 (SJSA-1) was 6.47, the pIC50 (A549) was 4.71 and the pIC50 (786-O) was 6.28.
`C#CC(=O)N1[C@@H](c2ccc(F)cc2F)c2[nH]c3ccccc3c2C[C@@H]1C` [Compound 200] was tested, and the pIC50 (SJSA-1) was 6.35, the pIC50 (A549) was 4.96 and the pIC50 (786-O) was 6.15.
In the case of `C#CC(=O)N1[C@@H](c2c(F)cccc2F)c2[nH]c3ccccc3c2C[C@@H]1C` [Compound 201], the pIC50 (SJSA-1) was 6.72, the pIC50 (A549) was 4.83 and the pIC50 (786-O) was 6.19.
For `C#CC(=O)N1[C@@H](CCCC)Cc2c([nH]c3ccccc23)[C@@H]1c1ccc(F)cc1` [Compound 205], the pIC50 (SJSA-1) was 7.49, the pIC50 (A549) was 5.36 and the pIC50 (786-O) was 7.21.
`C#CC(=O)N1[C@@H](c2ccc(F)cc2)c2[nH]c3ccccc3c2C[C@@H]1C` [Compound 206] gave a pIC50 (SJSA-1) of 6.33, a pIC50 (A549) of 4.66 and a pIC50 (786-O) of 5.96.
For `C#CCOc1ccc2[nH]c3c(c2c1)C[C@H](C)N(C(=O)CCl)[C@H]3c1ccc(NC23CC4CC(CC(C4)C2)C3)cc1` [Compound 207], the pIC50 (SJSA-1) was 7.06, the pIC50 (A549) was 4.88 and the pIC50 (786-O) was 6.67.
Work on `C#CC(=O)N1[C@@H](CCCC)Cc2c([nH]c3ccccc23)[C@@H]1c1ccc(N2CCOCC2)cc1` [Compound 216] yielded a pIC50 (SJSA-1) of 6.79, a pIC50 (A549) of 4.65 and a pIC50 (786-O) of 6.47.
`C[C@H]1Cc2c([nH]c3ccccc23)[C@H](c2ccc(F)cc2)N1C(=O)CCl` [Compound 221] was tested, and the pIC50 (SJSA-1) was 7.03, the pIC50 (A549) was 5.55 and the pIC50 (786-O) was 6.86.
For `C[C@H]1Cc2c([nH]c3ccccc23)[C@H](c2ccc(S(F)(F)(F)(F)F)cc2)N1C(=O)CCl` [Compound 222], the pIC50 (SJSA-1) was 6.94, the pIC50 (A549) was 5.47 and the pIC50 (786-O) was 6.77.
For `C[C@H]1Cc2c([nH]c3ccccc23)[C@H](C23CC(F)(C2)C3)N1C(=O)CCl` [Compound 226], the pIC50 (SJSA-1) was 5.94, the pIC50 (A549) was 5.06 and the pIC50 (786-O) was 5.90.
